Sc1nc2ccccc2[nH]1
solubility (mole fraction)
Conditions | 278.15 K | 283.15 K | 288.15 K | 293.15 K | 298.15 K | 303.15 K | 308.15 K | 313.15 K | 318.15 K
in 1,4-dioxane | 0.0141 | 0.0153 | 0.0166 | 0.0181 | 0.0195 | 0.021 | 0.0227 | 0.0246 | 0.0265
in 2-butanone | 0.0103 | 0.011 | 0.0117 | 0.0124 | 0.0133 | 0.0141 | 0.0151 | 0.0162 | 0.0172
in acetone | 0.0121 | 0.0128 | 0.0135 | 0.0143 | 0.0152 | 0.016 | 0.0169 | 0.0179 | 0.0189
in acetonitrile | 0.00102 | 0.00115 | 0.00129 | 0.00146 | 0.00163 | 0.00183 | 0.00205 | 0.00228 | 0.00257
in cyclohexane | 4.36e-06 | 5.51e-06 | 7.05e-06 | 8.99e-06 | 1.16e-05 | 1.49e-05 | 1.88e-05 | 2.27e-05 | 2.81e-05
in ethanol | 0.00532 | 0.00634 | 0.00746 | 0.00868 | 0.00998 | 0.0114 | 0.0126 | 0.0142 | 0.0158
in ethyl acetate | 0.00198 | 0.00236 | 0.00275 | 0.00318 | 0.00366 | 0.00413 | 0.00463 | 0.00518 | 0.00577
in isopropanol | 0.0034 | 0.00435 | 0.00528 | 0.00635 | 0.00755 | 0.0088 | 0.0102 | 0.0116 | 0.0132
in methanol | 0.00625 | 0.0073 | 0.00848 | 0.00964 | 0.0109 | 0.0123 | 0.0138 | 0.0152 | 0.0169
in n-butanol | 0.0041 | 0.0049 | 0.0058 | 0.0069 | 0.00809 | 0.00941 | 0.0109 | 0.0125 | 0.0144
in n-propanol | 0.00484 | 0.00559 | 0.0065 | 0.00759 | 0.00872 | 0.00999 | 0.0114 | 0.0131 | 0.0151
in toluene | 2.01e-05 | 2.73e-05 | 3.51e-05 | 4.35e-05 | 5.3e-05 | 6.38e-05 | 7.53e-05 | 8.87e-05 | 0.000104
